Source: patent publication US12083304B2, “Kits for topical, isotonic compositions” (GLYCIOME, LLC, priority 2019, dated 2024)

System: Arion lusitanicus
Test: Slug Mucosal Irritation (SMI) assay
Format: in vivo
Protocol: The SMI assay uses slugs (Arion lusitanicus) as the test organism. The body wall of slugs consists of a mucosal surface comprising mucus secreting cells covering a sub epithelial connective tissue. Slugs that are placed on an irritant substance will actively produce mucus as a protective mechanism from noxious agents. Additionally, tissue damage of the slug's surface results in the release of proteins and enzymes. The protein concentration in the collected samples is determined with a protein quantitation kit.
The Slug Mucosal Irritation (SMI) assay was developed to predict the mucosal irritation potency of pharmaceutical formulations and ingredients. Briefly, the assay utilized the terrestrial slug Arion lusitanicus, whose body wall is a mucosal surface composed of different layers. The outer single-layered columnar epithelium contains cells with cilia, cells with microvilli, and mucus-secreting cells that cover the subepithelial connective tissue. […]
The method for testing the irritation potency of the formulations was evaluated by placing the slugs on 100 mg of the sample for 30 minutes daily for 3 successive days, and the amount of mucus produced was measured. […] The total mucus production (MP) percentage was calculated as a percent of the slug's body weight.

With Nonoxynol-9 the “Total MP (%)” value (100 mg, 30 minutes daily, 3 successive days, percent of slug body weight) was 8.2 ± 1.2% and the MIP (mucosal irritation potency class) was “high”.
